Source: PubChem BioAssay (NCI)
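Protocol summary: plate cells (96-well), add compound at 5 concentrations, incubate 48 h, interpolate endpoints linearly. GI50 marks 50% less growth. TGI marks complete inhibition of growth.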

Columns and labels:
Assay in all cases: NCI-60 cell line screen, 48 h
NCI/ADR-RES ovarian = system: NCI/ADR-RES ovarian
SNB-19 CNS = system: SNB-19 CNS
HCC-2998 colon = system: HCC-2998 colon
K-562 leukemia = system: K-562 leukemia
U251 CNS = system: U251 CNS
HCT-15 colon = system: HCT-15 colon
NCI-H23 lung = system: NCI-H23 lung
T-47D breast = system: T-47D breast
SF-539 CNS = system: SF-539 CNS
DU-145 prostate = system: DU-145 prostate
NCI-H460 lung = system: NCI-H460 lung
LOX IMVI melanoma = system: LOX IMVI melanoma
HOP-62 NSCLC = system: HOP-62 NSCLC
CAKI-1 renal = system: CAKI-1 renal
HCT-116 colon = system: HCT-116 colon
HS 578T breast = system: HS 578T breast
NCI-H226 lung = system: NCI-H226 lung
SNB-75 CNS = system: SNB-75 CNS
UO-31 renal = system: UO-31 renal
BT-549 breast = system: BT-549 breast
RXF 393 renal = system: RXF 393 renal
RPMI-8226 leukemia = system: RPMI-8226 leukemia
MOLT-4 leukemia = system: MOLT-4 leukemia
A498 renal = system: A498 renal
786-0 renal = system: 786-0 renal
SK-MEL-5 melanoma = system: SK-MEL-5 melanoma
SR leukemia = system: SR leukemia
SF-295 CNS = system: SF-295 CNS
SK-MEL-28 melanoma = system: SK-MEL-28 melanoma
SK-OV-3 ovarian = system: SK-OV-3 ovarian
EKVX NSCLC = system: EKVX NSCLC
HOP-92 NSCLC = system: HOP-92 NSCLC
UACC-62 melanoma = system: UACC-62 melanoma
NCI-H522 lung = system: NCI-H522 lung
HT29 colon = system: HT29 colon
MDA-MB-231 breast = system: MDA-MB-231 breast
SW-620 colon = system: SW-620 colon
SF-268 CNS = system: SF-268 CNS
PC-3 prostate = system: PC-3 prostate
OVCAR-4 ovarian = system: OVCAR-4 ovarian
OVCAR-5 ovarian = system: OVCAR-5 ovarian
KM12 colon = system: KM12 colon
MDA-MB-435 = system: MDA-MB-435
M14 melanoma = system: M14 melanoma
OVCAR-3 ovarian = system: OVCAR-3 ovarian
TK-10 renal = system: TK-10 renal
HL-60(TB) leukemia = system: HL-60(TB) leukemia
COLO 205 colon = system: COLO 205 colon
MCF7 breast = system: MCF7 breast
CCRF-CEM leukemia = system: CCRF-CEM leukemia
A549 NSCLC = system: A549 NSCLC
SK-MEL-2 melanoma = system: SK-MEL-2 melanoma
ACHN renal = system: ACHN renal

COc1ccc2c(CCC(c3ccccc3)c3ccccc3)c3[n+](cc2c1OC)CCc1cc2c(cc1-3)OCO2
GI50 (NCI/ADR-RES ovarian): 13.1 µM | TGI (NCI/ADR-RES ovarian): 55.7 µM | GI50 (SNB-19 CNS): 0.242 µM | TGI (SNB-19 CNS): 1.74 µM | GI50 (HCC-2998 colon): 0.326 µM | TGI (HCC-2998 colon): 1.93 µM | GI50 (K-562 leukemia): 0.327 µM | TGI (K-562 leukemia): 3.01 µM | GI50 (U251 CNS): 0.172 µM | TGI (U251 CNS): 1.38 µM | GI50 (HCT-15 colon): 2.28 µM | TGI (HCT-15 colon): 7.43 µM | GI50 (NCI-H23 lung): 0.242 µM | TGI (NCI-H23 lung): 1.94 µM | GI50 (T-47D breast): 0.241 µM | TGI (T-47D breast): 1.76 µM | GI50 (SF-539 CNS): 0.846 µM | TGI (SF-539 CNS): 3.67 µM | GI50 (DU-145 prostate): 0.348 µM | TGI (DU-145 prostate): 1.8 µM | GI50 (NCI-H460 lung): 0.0123 µM | TGI (NCI-H460 lung): 1.03 µM | GI50 (LOX IMVI melanoma): 0.255 µM | TGI (LOX IMVI melanoma): 1.36 µM | GI50 (HOP-62 NSCLC): 0.546 µM | TGI (HOP-62 NSCLC): 1.8 µM | GI50 (CAKI-1 renal): 3.94 µM | TGI (CAKI-1 renal): 16.1 µM | GI50 (HCT-116 colon): 0.202 µM | TGI (HCT-116 colon): 1.27 µM | GI50 (HS 578T breast): 0.799 µM | TGI (HS 578T breast): 3.82 µM | GI50 (NCI-H226 lung): 1.56 µM | TGI (NCI-H226 lung): 5.33 µM | GI50 (SNB-75 CNS): 0.266 µM | TGI (SNB-75 CNS): 1.84 µM | GI50 (UO-31 renal): 3.2 µM | TGI (UO-31 renal): 13.3 µM | GI50 (BT-549 breast): 0.268 µM | TGI (BT-549 breast): 1.35 µM | GI50 (RXF 393 renal): 0.686 µM | TGI (RXF 393 renal): 2.2 µM | GI50 (RPMI-8226 leukemia): 0.0507 µM | TGI (RPMI-8226 leukemia): 1.72 µM | GI50 (MOLT-4 leukemia): 0.381 µM | TGI (MOLT-4 leukemia): 3.04 µM | GI50 (A498 renal): 1.31 µM | TGI (A498 renal): 6.8 µM | GI50 (786-0 renal): 1.09 µM | TGI (786-0 renal): 2.5 µM | GI50 (SK-MEL-5 melanoma): 0.0383 µM | TGI (SK-MEL-5 melanoma): 0.214 µM | GI50 (SR leukemia): 0.373 µM | TGI (SR leukemia): 3.24 µM | GI50 (SF-295 CNS): 0.732 µM | TGI (SF-295 CNS): 3.99 µM | GI50 (SK-MEL-28 melanoma): 0.462 µM | TGI (SK-MEL-28 melanoma): 2.06 µM | GI50 (SK-OV-3 ovarian): 0.593 µM | TGI (SK-OV-3 ovarian): 1.74 µM | GI50 (EKVX NSCLC): 0.492 µM | TGI (EKVX NSCLC): 7.25 µM | GI50 (HOP-92 NSCLC): 0.15 µM | TGI (HOP-92 NSCLC): 0.596 µM | GI50 (UACC-62 melanoma): 0.153 µM | TGI (UACC-62 melanoma): 1.76 µM | GI50 (NCI-H522 lung): 0.122 µM | TGI (NCI-H522 lung): 0.858 µM | GI50 (HT29 colon): 0.139 µM | TGI (HT29 colon): 1.31 µM | GI50 (MDA-MB-231 breast): 1.1 µM | TGI (MDA-MB-231 breast): 3.48 µM | GI50 (SW-620 colon): 0.315 µM | TGI (SW-620 colon): 1.63 µM | GI50 (SF-268 CNS): 0.519 µM | TGI (SF-268 CNS): 1.98 µM | GI50 (PC-3 prostate): 0.112 µM | TGI (PC-3 prostate): 0.837 µM | GI50 (OVCAR-4 ovarian): 0.271 µM | TGI (OVCAR-4 ovarian): 1.51 µM | GI50 (OVCAR-5 ovarian): 1.76 µM | TGI (OVCAR-5 ovarian): 5.95 µM | GI50 (KM12 colon): 0.16 µM | TGI (KM12 colon): 1.19 µM | GI50 (MDA-MB-435): 0.143 µM | TGI (MDA-MB-435): 1.41 µM | GI50 (M14 melanoma): 0.296 µM | TGI (M14 melanoma): 1.74 µM | GI50 (OVCAR-3 ovarian): 0.028 µM | TGI (OVCAR-3 ovarian): 1.3 µM | GI50 (TK-10 renal): 0.339 µM | TGI (TK-10 renal): 1.58 µM | GI50 (HL-60(TB) leukemia): 0.0822 µM | TGI (HL-60(TB) leukemia): 0.526 µM | GI50 (COLO 205 colon): 0.0831 µM | TGI (COLO 205 colon): 0.619 µM | GI50 (MCF7 breast): 0.483 µM | TGI (MCF7 breast): 3.22 µM | GI50 (CCRF-CEM leukemia): < 0.0398 µM | TGI (CCRF-CEM leukemia): 2.71 µM | GI50 (A549 NSCLC): 1.55 µM | TGI (A549 NSCLC): 5.07 µM | GI50 (SK-MEL-2 melanoma): 0.0705 µM | TGI (SK-MEL-2 melanoma): 1.04 µM | GI50 (ACHN renal): 1.29 µM | TGI (ACHN renal): 5.22 µM
